Drawing on patent US20220142165A1 (priority 2019, published 2022), this text covers pest or weed control and melting point for 22 compounds.

Usually melting point stands for the temperature, or range, at which the solid turns liquid.

For data set [1], the system named is tomato late blight pathogen (Phylophihora infeslans). Put plainly: whole plant or invertebrate. Type of data set: in vivo. To be noted: Phytophthora infestans, 96 h, read-out: Control value.
The test system of data set [2] is grape downy mildew pathogen (Plasmopara viticola). Put plainly: Grape downy mildew control test (Test Example 2). The class given is in vivo. Particulars: Plasmopara viticola, foliar, 168 h; 100 ppm by mass, sprayed on grape leaf disc (variety Chardonnay) before inoculation; blotch area ratio seven days after inoculation, 20° C. The method, then: 5 parts by mass of the compound according to the present invention, 93.5 parts by mass of dimethylformamide, and 1.5 parts by mass of polyoxyethylene alkylaryl ether were mixed and dissolved to prepare an emulsion (I) containing 5% by mass of an active ingredient.
The control value was calculated according to the following formula.
Control value (%)=100−{blotch area ratio in treated area/blotch area ratio in untreated area}×100
Water was added to the emulsion (I) such that the concentration of the heterocyclic compound became 100 ppm by mass, and then the heterocyclic compound was dissolved therein to obtain a pharmaceutical solution. Then, the pharmaceutical solution was sprayed on a leaf disc of grape (variety “Chardonnay”) placed on agar in a 6-well plate. After air-drying, the leaf disc on which the pharmaceutical solution was sprayed was inoculated with zoosporangia of grape downy mildew pathogen (Plasmopara viticola) in a suspension by spraying the suspension thereon (treated area). As a control, a leaf disc on which no pharmaceutical solution was sprayed was inoculated in the same way as mentioned above (untreated area). The resultant leaf discs were left in a moist chamber at 20° C. Seven days after inoculation, the grape leaf discs were visually observed to measure the blotch area ratio to calculate the control value.

In turn, `CO/N=C/c1ccnc(C(Oc2cc(F)c3ncsc3c2)c2nnco2)c1` (stereo not drawn) [b-22] gave a melting point of 113 to 148 °C. In data set [1], the pest or weed control at 125 ppm was at least 75%. In addition, the pest or weed control at 100 ppm in data set [2] was at least 75%.
As for `CO/N=C/c1ccnc(C(Oc2cc(C)c3ncsc3c2)c2nnco2)c1` (stereo not drawn) [b-23], the melting point was 146 to 148 °C. The pest or weed control at 125 ppm in data set [1] is at least 75%. Moreover, the pest or weed control at 100 ppm in data set [2] was at least 75%.
For the compound `CCCc1cc(OC(c2cc(/C=N/OC)ccn2)c2nnco2)cc2scnc12` (stereo not drawn) [b-24], the melting point was 80 to 82 °C. Besides, in data set [1], the pest or weed control at 125 ppm was at least 75%. Besides, the pest or weed control at 100 ppm in data set [2] is at least 75%.
In the case of `C#CCO/N=C/c1ccnc(C(Oc2ccc3nc(C)sc3c2)c2nnco2)c1` (stereo not drawn) [b-26], the melting point lay in the range of 118 to 121 °C. The pest or weed control at 125 ppm in data set [1] was at least 75%. In addition, in data set [2], the pest or weed control at 100 ppm was at least 75%.
Turning to `CO/N=C/c1cc(C(Oc2ccc3nc(C)sc3c2)c2nnco2)ncc1F` (stereo not drawn) [b-27], the melting point lay within 129 to 131 °C. In data set [1], the pest or weed control at 125 ppm was at least 75%. Further, in data set [2], the pest or weed control at 100 ppm is at least 75%.
In the case of `CO/N=C/c1cc(C(Oc2ccc3ncsc3c2)c2nnco2)ncc1C#N` (stereo not drawn) [b-40], the melting point fell in the range of 129 to 131 °C. For the same compound, in data set [1], the pest or weed control at 125 ppm is at least 75%. The pest or weed control at 100 ppm in data set [2] is at least 75%.
With `CO/N=C/c1cc(C(Oc2cc(Br)c3nc(C)sc3c2)c2nnco2)ncc1F` (stereo not drawn) [b-42], the melting point was in the range of 70 to 75 °C. Further, in data set [1], the pest or weed control at 125 ppm was at least 75%. Besides, in data set [2], the pest or weed control at 100 ppm was at least 75%.
In turn, `CCc1cc(OC(c2cc(/C=N/OC)c(F)cn2)c2nnco2)cc2scnc12` (stereo not drawn) [b-44] yielded a melting point of 114 to 117 °C. In data set [1], the pest or weed control at 125 ppm was at least 75%. Besides, the pest or weed control at 100 ppm in data set [2] was at least 75%.
Regarding `CO/N=C/c1cc(C(Oc2cc(F)c3ncsc3c2)c2nnco2)ncc1F` (stereo not drawn) [b-45], the melting point was 137 to 139 °C. Also, the pest or weed control at 125 ppm in data set [1] is at least 75%. Besides, the pest or weed control at 100 ppm in data set [2] is at least 75%.
For the compound `CCc1cc(OC(c2cc(/C=N/OC)c(F)cn2)c2nnco2)cc2sc(C)nc12` (stereo not drawn) [b-46], the melting point lay within 145 to 147 °C. In data set [1], the pest or weed control at 125 ppm is at least 75%. The pest or weed control at 100 ppm in data set [2] is at least 75%.
Compound `CO/N=C/c1cc(C(Oc2cc(C)c3nc(C)sc3c2)c2nnco2)ncc1F` (stereo not drawn) [b-47] registered a melting point of 151 to 154 °C. For the same compound, the pest or weed control at 125 ppm in data set [1] is at least 75%. Moreover, in data set [2], the pest or weed control at 100 ppm was at least 75%.
Turning to `C=Cc1cc(OC(c2cc(/C=N/OC)c(F)cn2)c2nnco2)cc2sc(C)nc12` (stereo not drawn) [b-48], the melting point is 116 to 119 °C. Also, the pest or weed control at 125 ppm in data set [1] was at least 75%. Also, the pest or weed control at 100 ppm in data set [2] was at least 75%.
For the compound `Fc1cnc(C(Oc2ccc3ncsc3c2)c2nnco2)cc1/C=N/OCC1CC1` (stereo not drawn) [b-50], the melting point is 129 to 131 °C. Moreover, in data set [1], the pest or weed control at 125 ppm is at least 75%. Moreover, in data set [2], the pest or weed control at 100 ppm is at least 75%.
The compound `CO/N=C/c1cc(C(Oc2cc(Cl)c3ncsc3c2)c2nnco2)ncc1F` (stereo not drawn) [b-55] had a melting point of 153 to 154 °C. For the same compound, in data set [1], the pest or weed control at 125 ppm is at least 75%. In data set [2], the pest or weed control at 100 ppm is at least 75%.
For the compound `CO/N=C/c1cc(C(Oc2cc3scnc3cc2F)c2nnco2)ncc1F` (stereo not drawn) [b-57], the melting point is 150 to 151 °C. Further, the pest or weed control at 125 ppm in data set [1] was at least 75%. Moreover, the pest or weed control at 100 ppm in data set [2] was at least 75%.
As for `CO/N=C/c1cc(C(Oc2ccc3nnsc3c2)c2nnco2)ncc1F` (stereo not drawn) [b-58], the melting point lay within 134 to 135 °C. Besides, the pest or weed control at 125 ppm in data set [1] is at least 75%. Besides, the pest or weed control at 100 ppm in data set [2] was at least 75%.
With `C=Cc1nc2ccc(OC(c3cc(/C=N/OC)c(F)cn3)c3nnco3)cc2s1` (stereo not drawn) [b-63], the melting point lay within 88 to 89 °C. Also, the pest or weed control at 125 ppm in data set [1] was at least 75%. The pest or weed control at 100 ppm in data set [2] was at least 75%.
On to `CO/N=C/c1cc(C(Oc2ccc3nc(CF)sc3c2)c2nnco2)ncc1F` (stereo not drawn) [b-66], for which the melting point was in the range of 133 to 134 °C. The pest or weed control at 125 ppm in data set [1] is at least 75%. Further, the pest or weed control at 100 ppm in data set [2] was at least 75%.
In the case of `CNc1nc2ccc(OC(c3cc(/C=N/OC)c(F)cn3)c3nnco3)cc2s1` (stereo not drawn) [b-74], the melting point was 181 to 182 °C. Further, the pest or weed control at 125 ppm in data set [1] was at least 75%. Moreover, the pest or weed control at 100 ppm in data set [2] was at least 75%.
Consider `CO/N=C/c1cc(C(Oc2ccc3nc(C4CC4)sc3c2)c2nnco2)ncc1F` (stereo not drawn) [b-76], for which the melting point fell in the range of 103 to 104 °C. Besides, in data set [1], the pest or weed control at 125 ppm is at least 75%. Further, in data set [2], the pest or weed control at 100 ppm is at least 75%.
Compound `CO/N=C/c1cc(C(Oc2cc(OC)c3ncsc3c2)c2nnco2)ncc1F` (stereo not drawn) [b-84] registered a melting point of 103 to 104 °C. Also, the pest or weed control at 125 ppm in data set [1] was at least 75%. Also, the pest or weed control at 100 ppm in data set [2] was at least 75%.
Take `CCc1cc(OC(c2cc(/C=N/OCCOC)c(F)cn2)c2nnco2)cc2sc(C)nc12` (stereo not drawn) [b-87]: the melting point was in the range of 138 to 139 °C. In addition, in data set [1], the pest or weed control at 125 ppm is at least 75%. In addition, the pest or weed control at 100 ppm in data set [2] is at least 75%.
